In patent publication US20190031665A1, “DERIVATIVES OF PYRROLOIMIDAZOLE OR ANALOGUES THEREOF WHICH ARE USEFUL FOR THE TREATMENT OF INTER ALIA CANCER” (EMCURE PHARMACEUTICALS LIMITED, priority 2016, published 2019):

How the values were obtained:
[1] = target: T1, human tryptophan 2,3-dioxygenase (hTDO) (Homo sapiens, UniProt P48775); assay: In-vitro human tryptophan 2,3-dioxygenase (TDO) enzyme assay; assay type: biochemical; details: for inhibition at 1 µM: hTDO enzyme at 1.0 μM concentration; for inhibition at 10 µM: hTDO enzyme at 10.0 μM concentration
T1 construct: His tag (N); purchased BPS Bioscience, San Diego, Calif., USA; host or cells: E. coli
T1 sequence (P48775 whole entry): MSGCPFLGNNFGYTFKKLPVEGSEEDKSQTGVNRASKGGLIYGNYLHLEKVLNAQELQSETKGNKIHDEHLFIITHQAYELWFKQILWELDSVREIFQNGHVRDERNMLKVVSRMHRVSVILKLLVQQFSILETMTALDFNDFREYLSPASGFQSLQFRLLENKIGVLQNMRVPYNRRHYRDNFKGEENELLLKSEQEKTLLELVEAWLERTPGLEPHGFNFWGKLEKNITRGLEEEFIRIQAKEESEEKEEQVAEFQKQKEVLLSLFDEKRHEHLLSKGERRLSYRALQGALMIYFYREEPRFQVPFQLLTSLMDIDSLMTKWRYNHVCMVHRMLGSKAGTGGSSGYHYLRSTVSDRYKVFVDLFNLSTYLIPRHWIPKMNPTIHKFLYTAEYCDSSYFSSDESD
In short: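 N-His-tagged hTDO expressed in E. coli (125 ng) incubated with 200 μM L-tryptophan, 100 mM sodium phosphate pH 7.0, 0.01% Tween-20, 100 μM ascorbate, 60 min at 37 °C. Product converted with 200 mM piperidine (65 °C, 20 min) to NFK-PIP, fluorescence 400/500 nm; IC50 by nonlinear regression.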

[2] = target: T2, human indoleamine 2,3-dioxygenase 1 (hIDO1) (Homo sapiens, UniProt P14902); assay: In-vitro human indoleamine 2,3-dioxygenase 1 (IDO1) enzyme assay; assay type: biochemical; details: for IC50: hIDO1 enzyme; for inhibition at 1 µM: hIDO1 enzyme at 1.0 μM concentration; for inhibition at 10 µM: hIDO1 enzyme at 10.0 μM concentration
T2 construct: His tag (N); purchased BPS Bioscience, San Diego, Calif., USA; host or cells: E. coli
T2 sequence (P14902 whole entry): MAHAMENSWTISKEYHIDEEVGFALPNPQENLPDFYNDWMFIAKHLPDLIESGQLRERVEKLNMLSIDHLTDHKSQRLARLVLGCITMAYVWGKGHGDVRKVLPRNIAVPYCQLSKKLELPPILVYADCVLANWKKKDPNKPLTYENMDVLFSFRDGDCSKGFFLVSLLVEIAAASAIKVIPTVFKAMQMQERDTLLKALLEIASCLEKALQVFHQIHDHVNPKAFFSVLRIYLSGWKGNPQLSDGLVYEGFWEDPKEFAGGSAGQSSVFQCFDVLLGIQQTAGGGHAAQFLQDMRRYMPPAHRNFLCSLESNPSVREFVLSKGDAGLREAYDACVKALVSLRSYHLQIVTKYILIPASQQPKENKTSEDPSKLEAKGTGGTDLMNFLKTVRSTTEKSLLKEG
In short: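 His-tagged hIDO1 (E. coli, 50 ng) incubated with 80 μM tryptophan, 10 mM ascorbate, 10 μM methylene blue, catalase and 0.01% Tween-20 in 50 mM sodium phosphate pH 6.5, 60 min, 37 °C. Piperidine converts N-formylkynurenine to fluorescent NFK-PIP (ex 400/em 500 nm); IC50 by nonlinear regression.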

SMILES | inhibition at 1 µM [1] [%] | IC50 [2] [nM] | inhibition at 1 µM [2] [%] | inhibition at 10 µM [2] [%] | inhibition at 10 µM [1] [%]
CC1=C(c2ccccc2)C(CC(=O)c2ccc(-c3cccnc3)cc2)n2cncc21 (stereo not shown) [Example 55] | ≥ 50 | < 500 | ≥ 50 | ≥ 50 | –
CC1=C(c2ccccc2)C(CC(=O)C2CCC(C(=O)Nc3ccncc3)CC2)n2cncc21 (stereo not shown) [Example 117] | ≥ 50 | > 500 | ≥ 50 | ≥ 50 | –
CCOC(=O)N1CCC(C(=O)CC2C(c3ccccc3)=C(C)c3cncn32)CC1 (stereo not shown) [Example 146] | ≤ 50 | – | ≤ 50 | ≥ 50 | –
CCOC(=O)C1CCC([C@@H](O)CC2C(c3ccccc3)=C(C)c3cncn32)CC1 (stereo in doubt) [Example 189] | ≥ 50 | < 500 | ≥ 50 | ≥ 50 | –
CC1=C(c2ccccc2)C(CC(=O)C2CCCN2C(=O)c2ccccc2)n2cncc21 (stereo not shown) [Example 115] | ≤ 50 | – | ≤ 50 | ≤ 50 | –
CC1=C(c2ccccc2)C(CC(O)C2CCN(C(=O)c3ccccn3)CC2)n2cncc21 (stereo not shown) [Example 152] | ≤ 50 | > 500 | ≤ 50 | ≥ 50 | –
CC1=C(c2ccccc2)C(CC(=O)C2CC2)n2cncc21 (stereo not shown) [Example 26, 1-Cyclopropyl-2-(7-methyl-6-phenyl-5H-pyrrolo[1,2-c]imidazol-5-yl)-ethanone] | ≥ 50 | – | ≤ 50 | ≥ 50 | ≥ 50
CC1=C(c2ccccc2)C(CC(=O)c2cccc(C(F)(F)F)c2)n2cncc21 (stereo not shown) [Example 29, 2-(7-Methyl-6-phenyl-5H-pyrrolo[1,2-c]imidazol-5-yl)-1-(3-trifluoromethyl-phenyl)-ethanone] | ≥ 50 | < 500 | ≥ 50 | ≥ 50 | ≥ 50
CC1=C(c2ccccc2)C(CC(=O)C2CCC(C(=O)Nc3ccc(F)cc3F)CC2)n2cncc21 (stereo not shown) [Example 110] | ≥ 50 | – | ≤ 50 | ≥ 50 | –
O=C(CC1C2=C(CCCC2)c2cncn21)c1ccccc1 (stereo not shown) [Example 1, 1-Phenyl-2-(6,7,8,9-tetrahydro-5H-imidazo[5,1-a]isoindol-5-yl)-ethanone] | – | – | – | ≤ 50 | ≥ 50
CC1=C(c2ccccc2)C(CC(O)C2CCCCC2)n2cncc21 (stereo not shown) [Example 89, 1-Cyclohexyl-2-(7-methyl-6-phenyl-5H-pyrrolo[1,2-c]imidazol-5-yl)-ethane-1-ol] | ≥ 50 | < 500 | ≥ 50 | ≥ 50 | ≥ 50
CCCCCCCCC(O)CC1C(c2ccccc2)=C(C)c2cncn21 (stereo not shown) [Compound 171, 1-(7-Methyl-6-phenyl-5H-pyrrolo[1,2-c]imidazol-5-yl)-decan-2-ol] | – | – | ≥ 50 | ≥ 50 | ≥ 50
CC1=C(c2ccccc2)C(CC(=O)C2CN(C(=O)c3ccccc3)C2)n2cncc21 (stereo not shown) [Example 159, 1-(1-Benzoyl-azetidin-3-yl)-2-(7-methyl-6-phenyl-5H-pyrrolo[1,2-c]imidazol-5-yl)-ethanone] | ≤ 50 | – | ≤ 50 | ≥ 50 | –
CC1=C(c2ccccc2)C(CC(O)C2CCN(C(=O)C(C)C)CC2)n2cncc21 (stereo not shown) [Example 187] | ≤ 50 | > 500 | ≥ 50 | ≥ 50 | –
CC1=C(c2ccccc2)C(CC(=O)c2ccc(-c3ccccc3)cc2)n2cncc21 (stereo not shown) [Example 41, 1-([1,1′-biphenyl]-4-yl)-2-(7-methyl-6-phenyl-5H-pyrrolo[1,2-c]imidazol-5-yl)ethan-1-one] | ≥ 50 | < 500 | ≥ 50 | ≥ 50 | –
CC1=C(c2ccccc2)C(CC(=O)c2ccc(-c3ccsc3)cc2)n2cncc21 (stereo not shown) [Example 56] | ≤ 50 | < 500 | ≥ 50 | ≥ 50 | –
CC1=C(c2ccccc2)C(CC(O)c2ccc(-c3ccccc3)cc2)n2cncc21 (stereo not shown) [Example 44, 1-([1,1′-biphenyl]-4-yl)-2-(7-methyl-6-phenyl-5H-pyrrolo[1,2-c]imidazol-5-yl)ethan-1-ol] | ≥ 50 | – | ≥ 50 | ≥ 50 | –

Second part, the compound after the results:

inhibition at 1 µM [1] [%] | IC50 [2] [nM] | inhibition at 1 µM [2] [%] | inhibition at 10 µM [2] [%] | inhibition at 10 µM [1] [%] | SMILES
≥ 50 | < 500 | ≥ 50 | ≥ 50 | – | CC1=C(c2ccccc2)C(CC(=O)c2ccc(C(=O)Nc3ccc(F)cc3F)cc2)n2cncc21 (stereo not shown) [Example 81]
≥ 50 | > 500 | ≥ 50 | ≥ 50 | – | CC1=C(c2ccccc2)C(CC(=O)c2ccc(-c3cnc[nH]3)cc2)n2cncc21 (stereo not shown) [Example 67]
– | – | – | ≤ 50 | ≥ 50 | O=C(CC1C2=C(CCCC2)c2cncn21)c1cccc(OCc2ccccc2)c1 (stereo not shown) [Example 7]
≥ 50 | – | ≥ 50 | ≥ 50 | – | CC1=C(c2ccccc2)C(CC(=O)c2cccc(-c3ccccc3F)c2)n2cncc21 (stereo not shown) [Example 70]
≤ 50 | – | ≤ 50 | ≥ 50 | – | CC1=C(c2cccc(Cl)c2)C(CC(=O)C2CCCCC2)n2cncc21 (stereo not shown) [Example 95]
≤ 50 | – | ≤ 50 | ≤ 50 | – | CC1=C(c2ccccc2)C(CC(=O)C2CCC(C(=O)O)CC2)n2cncc21 (stereo not shown) [Example 130]
≥ 50 | > 500 | ≥ 50 | ≥ 50 | ≥ 50 | CC1=C(c2ccccc2)C(CC(=O)c2ccccc2)n2cncc21 (single isomer, unassigned) [Example 30]
≥ 50 | – | ≤ 50 | ≥ 50 | – | CC1=C(c2ccccc2)C(CC(=O)C2CCN(S(=O)(=O)c3ccccc3)CC2)n2cncc21 (stereo not shown) [Example 143]
≥ 50 | < 500 | ≥ 50 | ≥ 50 | ≥ 50 | CC1=C(c2ccccc2)C(CC(=O)c2ccc3ccccc3c2)n2cncc21 (stereo not shown) [Example 25, 2-(7-Methyl-6-phenyl-5H-pyrrolo[1,2-c]imidazol-5-yl)-1-naphthalen-2-yl-ethanone]
≤ 50 | – | ≤ 50 | ≤ 50 | – | COc1ccc(C2=C(C)c3cncn3C2CC(=O)C2CCCCC2)cc1 (stereo not shown) [Example 104]
≤ 50 | – | ≤ 50 | ≥ 50 | – | CC1=C(c2ccccc2)C(CC(O)C2CCN(S(C)(=O)=O)CC2)n2cncc21 (stereo not shown) [Example 165]
≥ 50 | – | ≥ 50 | – | – | CC1=C(c2ccccc2)C(CC(O)C2CCC(O)CC2)n2cncc21 (stereo not shown) [Example 127]
≤ 50 | < 500 | ≥ 50 | ≥ 50 | – | CC1=C(c2ccccc2)C(CC(O)C2CCN(C(=O)c3ccccc3)CC2)n2cncc21 (stereo not shown) [Example 144]
≥ 50 | – | ≥ 50 | ≥ 50 | – | CC1=C(c2ccccc2)C(CC(=O)c2ccc(C(=O)Nc3ccc(Cl)cc3)cc2)n2cncc21 (stereo not shown) [Example 80]
